In the assay the target is T1, Bone morphogenetic protein 1 (Homo sapiens, UniProt P13497).
T1 sequence (P13497 whole entry): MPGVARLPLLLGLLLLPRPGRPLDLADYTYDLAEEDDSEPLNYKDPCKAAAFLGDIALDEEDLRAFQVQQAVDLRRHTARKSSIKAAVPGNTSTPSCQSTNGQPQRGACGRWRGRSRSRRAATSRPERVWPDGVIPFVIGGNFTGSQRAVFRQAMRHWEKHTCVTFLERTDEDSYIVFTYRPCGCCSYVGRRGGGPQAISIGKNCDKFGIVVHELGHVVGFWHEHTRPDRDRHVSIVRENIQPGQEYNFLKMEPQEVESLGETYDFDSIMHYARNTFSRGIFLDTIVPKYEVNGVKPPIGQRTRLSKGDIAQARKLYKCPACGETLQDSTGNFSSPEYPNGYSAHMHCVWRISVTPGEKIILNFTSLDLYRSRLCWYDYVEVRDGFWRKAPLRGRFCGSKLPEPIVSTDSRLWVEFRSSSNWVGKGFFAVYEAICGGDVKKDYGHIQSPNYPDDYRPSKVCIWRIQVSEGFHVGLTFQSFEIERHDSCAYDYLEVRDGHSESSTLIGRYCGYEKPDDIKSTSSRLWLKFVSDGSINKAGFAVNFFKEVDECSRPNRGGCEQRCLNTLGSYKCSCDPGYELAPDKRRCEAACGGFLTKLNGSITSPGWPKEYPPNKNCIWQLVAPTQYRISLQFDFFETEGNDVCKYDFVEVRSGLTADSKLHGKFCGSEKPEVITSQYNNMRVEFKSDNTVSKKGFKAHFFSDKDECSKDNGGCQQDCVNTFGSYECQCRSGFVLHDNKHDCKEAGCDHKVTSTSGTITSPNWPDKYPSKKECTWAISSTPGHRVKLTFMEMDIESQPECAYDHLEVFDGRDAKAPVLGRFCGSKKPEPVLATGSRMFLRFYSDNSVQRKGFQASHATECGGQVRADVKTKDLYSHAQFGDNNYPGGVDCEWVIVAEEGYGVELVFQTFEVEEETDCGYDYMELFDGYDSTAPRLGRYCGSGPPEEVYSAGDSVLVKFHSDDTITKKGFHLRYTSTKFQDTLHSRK
The assay is described as follows: Inhibitory activity against procollagen C-proteinase (PCP).

pIC50: −log10 of the molar value.

The values that follow come from ChEMBL document CHEMBL1135293, “Amino acid derived sulfonamide hydroxamates as inhibitors of procollagen C-proteinase. Part 2: Solid-phase optimization of side chains” (Bioorg Med Chem Lett, 2002).

What is called pIC50 is −log10 of the IC50, conventionally taken in molar units.

Molecule `COc1ccc(S(=O)(=O)N(Cc2cc(C(F)(F)F)cc(C(F)(F)F)c2)[C@H](Cc2cccs2)C(=O)NO)cc1` had a pIC50 of 6.23.
Regarding `COc1ccc(S(=O)(=O)N(Cc2cccc(C)c2[N+](=O)[O-])[C@H](C)C(=O)O)cc1`, the pIC50 is 6.42.
Next, `COc1ccc(S(=O)(=O)N(Cc2cccc(Cl)c2)[C@H](Cc2cccs2)C(=O)NO)cc1`: 6.41; `COc1ccc(S(=O)(=O)N(Cc2ccc(Cl)cc2Cl)[C@H](Cc2cccs2)C(=O)NO)cc1`: 6.07; `COC(=O)c1ccc(CN([C@H](Cc2cccs2)C(=O)NO)S(=O)(=O)c2ccc(OC)cc2)cc1`: 6.96.
In turn, `CCN(CC)C(=N)NCCC[C@H](C(=O)O)N(Cc1ccc2c(c1)OCO2)S(=O)(=O)c1ccc(OC)cc1` gave a pIC50 of 7.55.
Regarding `COc1ccc(S(=O)(=O)N(Cc2ccc(I)cc2)[C@H](Cc2cccs2)C(=O)NO)cc1`, the pIC50 was 6.44.
The same measure for `COc1ccc(S(=O)(=O)N(Cc2cccc(Br)c2)[C@H](Cc2cccs2)C(=O)O)cc1`: 6.64; for `COc1ccc(S(=O)(=O)N(Cc2ccc(C(C)C)cc2)[C@H](C)C(=O)O)cc1`: 6.46.
In the case of `COc1ccc(S(=O)(=O)N(Cc2ccc(OC)c(C)c2)[C@H](Cc2cccs2)C(=O)NO)cc1`, the pIC50 was 6.31. This pIC50 and that of the molecule before are within 0.2 log units of each other.
For `C=CCOc1ccc2ccc(CN([C@H](Cc3cccs3)C(=O)NO)S(=O)(=O)c3ccc(OC)cc3)cc2c1`, the pIC50 is 6.54.
